Data as given in patent US20130053372A1, “5-HT RECEPTOR MODULATORS” (Cambridge Enterprise Limited, priority 2010, published 2013).
Counter-ions that a name gives are not always drawn.

Assays:
human h5-HT1B receptor = human h5-HT1B receptor (Homo sapiens, UniProt P28222); assay: Binding affinity at human h5-HT1B receptors (HBA); conditions: [3H]GR125743 displacement; Kd from IC50 by Cheng & Prusoff; monohydrochloride salt
Procedure: Binding Protocol for Determination of Binding Affinity at Human […] Receptors (HBA)
Membrane preparations (5 μg in a volume of 100 μl per sample) expressing the human h5-HT1B receptor were preincubated at 27° C. in buffer (50 mM Tris HCl, 10 mM MgCl2 and 1 mM EDTA; pH 7.4) with or without 10 μM SB214461 (N-(3-(2-(dimethylamino)ethoxy)-4-methoxyphenyl)-2′-methyl-4′-(5-methyl-1,2,4-oxadiazol-3-yl)biphenyl-4-carboxamide, Eur. J. Pharmacol. 1997, 331, 169-174) (to determine non-specific binding). Receptor binding was determined by incubation at 27° C. with 3.5 nM [N-methyl-^3H] GR125743 (GE Life Science Products) for 90 min. The incubations were terminated by rapid vacuum filtration through GF/B glass fibre filters that had been presoaked in 3% polyethylenimine. Samples were washed 3 times with 1.5 ml ice-cold buffer (50 mM Tris-HCl, pH 7.4) and bound radioactivity determined by liquid scintillation counting after leaving the filters in contact with the scintillation fluid (4 ml Quicksafe ‘A’, Zinsser, Maidenhead, UK) for at least 4 h before counting for 5 min in a liquid scintillation analyzer.
(§1) Specific binding was determined as B—BNS/(BTot—BNS) where B is the binding in the presence of a given competing ligand, BNS is the non-specific binding of radioligand (i.e. the binding in the presence of 10 μM SB214461), and BTot is the amount of binding of radioligand in the absence of a competing ligand. Data for specific binding as a function of the concentration of competing ligand were fitted to a single-site model to obtain a value for 1050. Kd values were derived from IC50 by the Cheng & Prusoff equation (Cheng Y, Prusoff W H (1973). Biochem Pharmacol 22, 3099-3108).

gp5-HT1B [1] = biological target: T1, gp5-HT1B (Cavia porcellus, UniProt O08892); assay: Guinea-pig frontal cortex membrane binding at gp5-HT1B (GPF); set-up: from tissue; host or cells: guinea-pig frontal cortex membranes; conditions: monohydrochloride salt; for Kd: Kd from IC50 by Cheng & Prusoff, read-out: (GPF) Guinea-Pig Frontal Cortex membrane binding Affinity at gp5-HT1B Kd; for IC50: [3H]GR125743 displacement
Procedure: Binding Protocol for Determination of Affinity in gp5-HY1B in Guinea-Pig Frontal Cortex Membranes. (GPF)
Guinea-pig frontal cortex membranes were resuspended in a buffer (50 mM Tris-HCl, 4 mM MgCl, 2.5 mM CaCl2, 1 mM EDTA and 120 mM NaCl pH 7.4) to a final concentration of 5-6 μg protein μl^−1. Receptor binding was initiated by the addition of membranes and carried out in a volume of 0.5 ml at 27° C. Non-specific binding was determined by pre-incubation for 15 min with 10 μM SB214461 (N-(3-(2-(dimethylamino)ethoxy)-4-methoxyphenyl)-2′-methyl-4′-(5-methyl-1,2,4-oxadiazol-3-yl)biphenyl-4-carboxamide, Eur. J. Pharmacol. 1997, 331, 169-174). The amount of binding in the presence or absence of a competing ligand was determined by incubation at 27° C. for 60 min with 0.6 nM [N-methyl ^3H] GR125743 (GE Life Science Products). Incubation was terminated by rapid vacuum filtration through GF/B glass fibre filters that had been presoaked in 3% polyethylenimine. Samples were washed 3 times with 1.5 ml ice-cold buffer (50 mM Tris-HCl, pH 7.4) and bound radioactivity determined by liquid scintillation counting after leaving the filters in contact with the scintillation fluid for at least 4 h before counting for 5 min in a liquid scintillation analyzer.
as §1, with “IC50.” for “1050.”

gp5-HT1B [2] = biological target: T1, gp5-HT1B; assay: Guinea-pig iliac artery functional assay at gp5-HT1B (GPI); type: cell-based; set-up: from tissue; host or cells: guinea-pig common iliac artery segments; conditions: classified as antagonism, agonism or no effect at 10 μM, against 5-nonyloxytryptamine contraction; monohydrochloride salt
Procedure: Protocol for Determination of Efficacy at gp5-HT1B Receptors in the Guinea-Pig Iliac Artery. (GPI)
Guinea-pig common iliac artery segments (1.0-1.5 mm long) from Dunkin-Harley guinea-pigs (250 g-500 g) were mounted under normalized tension in oxygenated (95% O2; 5% CO2) Krebs-Henseleit solution (NaCl, 118 mM; KCl, 4.7 mM; MgSO4, 1.2 mM; KH2PO4, 1.2 mM; NaHCO3, 25 mM; CaCl2, 2.5 mM; D-glucose, 11 mM; and with indomethacin, 10 μM). After 30 min equilibration, the vessels were precontracted with 5-HT (10 μM) and tested for endothelial integrity by administration of carbachol (10 μM), endothelium-intact vessels (relaxation ≧90% to carbachol) were used for the experiments. Concentration/contraction curves to cumulative addition of 5-nonyloxytryptamine (5-NOT; a 5-HT1B receptor-selective agonist) were constructed in 25 mM KCl Krebs-Henseleit solution (standard Krebs-Henseleit solution in which the KCl concentration was increased to 25 mM by equimolar substitution of NaCl). Vessels were incubated with putative antagonists for 30 min before construction of a concentration/contraction curve for 5-NOT. Contractile responses were expressed as a percentage of the tone induced by Krebs-Henseleit solution containing 90 mM KCl after substitution of an equivalent amount of NaCl with KCl in standard Krebs-Henseleit solution. Data were analysed using non-linear procedures by fitting to a logistic equation: E=(Rmax.[A]^nH)/EC50^nH+[A]^nH), where E is the contraction induced, [A] the concentration of the agonist, Rmax the maximal increase in tension induced, nH the slope function and EC50 the concentration of producing half the maximal contractile tone. Potency was assessed using the Gaddum equation: […] where [A] is the concentration of the putative antagonist and Ka its affinity constant at the 5-HT1B receptor. Compounds are classified as having antagonism, agonism or no effect at a dose concentration of 10 μM.

rat r5-HT1B receptors = biological target: T2, rat r5-HT1B receptors (Rattus norvegicus, UniProt P28564); assay: Binding affinity at rat r5-HT1B receptors, rat cerebral cortex membrane binding (RBA); conditions: value in parentheses; monohydrochloride salt
T2 construct: from tissue
Procedure: Binding Protocol for Determination of Affinity at rat r5-HT 1B Receptors (RBA)
This binding affinity protocol was performed according to standard conditions disclosed in Eur. J. Pharmacol. 1985, 118, 1-12.

[3] = test system: chronically hypoxic murine model of pulmonary arterial hypertension (PAH); assay: Effect on development of hypoxia-induced pulmonary hypertension (haemodynamics, right ventricular hypertrophy); type: in vivo, Mice (C57B/6J); conditions: mice
Procedure: Protocol for the Determination of the Effect on the Development of Hypoxia-Induced Pulmonary Hypertension.
Mice (C57B/6J, male, 2 months) were exposed to 14 days of hypobaric hypoxia (equivalent to 10% O2) or normoxia, as described in MacLean, M. R. et al. Circulation 2008, 117, 2928-2937 and MacLean, M. R. et al. Circulation 2004,109, 2150-2155. Mice were dosed either with vehicle (dH2O) or 82 (15 mg/kg/day) for 14 days. Haemodynamic Measurements: Heart rate, right ventricular pressure and systemic arterial pressure were measured and analysed as described in MacLean, M. R. et al. Circulation 2008, 117, 2928-2937 and MacLean, M. R. et al. Circulation 2004,109, 2150-2155. Briefly, right ventricular pressure was measured via transdiaphragmatic right heart catheterisation and systemic arterial pressure was measured via cannulation of the left common carotid artery. Lung Histology: Sagittal sections of lung were elastica-Van Gieson stained and microscopically assessed for the muscularisation of pulmonary arteries (<80 μm external diameter) in a blinded fashion as described in MacLean, M. R. et al. Circulation 2008, 117, 2928-2937 and MacLean, M. R. et al. Circulation 2004,109, 2150-2155. Remodelled arteries were confirmed by the presence of a double elastic laminae.
(§2) Lung sections from 5 mice for each group were studied. Approximately 150 arteries from each lung section (˜750 arteries in total for each group) were assessed. Right Ventricular Hypertrophy: Right ventricular hypertrophy (RVH) was assessed by weight measurement of the right ventricular free wall (RV) and left ventricle plus septum (LV+S). The ratio expressed is RV/LV+S. RVH measurements from 6 to 8 mice for each group were assessed. Myography: Small pulmonary arteries (PAs) of ˜350 μm internal diameter (i.d.) were set up on wire myographs as described in MacLean M. R. et al. J Pharmacol Exp Ther. 2005, 313, 539-548. Briefly, PAs from normoxic mice were set up at tensions equivalent to their mean in vivo right ventricular pressure (RVP) (12-15 mmHg), whereas PAs from hypoxic mice were set up at tensions equivalent to the elevated in vivo mean pressures observed after exposure to hypoxia (25-30 mmHg). After a 45-min equilibration period, the response to 50 mM KCl was determined. Cumulative response curves were constructed in the presence and absence of the antagonist which was allowed a 45-min equilibrium period before constructing the curves.
The effects of 82 on a chronically hypoxic murine model of pulmonary arterial hypertension (PAH) were assessed. Four small groups of n=3 or 4 were used. The results are illustrated in FIGS. 13-17 (see also description of figures, above).

[4] = test system: intralobar pulmonary arteries from hypoxic mice; assay: Myography of pulmonary arteries: vasoreactivity to 5-HT; set-up: species or system Mice (C57B/6J); conditions: 15 mg/kg/day
Procedure: as §2

human h5-HT1B receptor, sequence (P28222 whole entry): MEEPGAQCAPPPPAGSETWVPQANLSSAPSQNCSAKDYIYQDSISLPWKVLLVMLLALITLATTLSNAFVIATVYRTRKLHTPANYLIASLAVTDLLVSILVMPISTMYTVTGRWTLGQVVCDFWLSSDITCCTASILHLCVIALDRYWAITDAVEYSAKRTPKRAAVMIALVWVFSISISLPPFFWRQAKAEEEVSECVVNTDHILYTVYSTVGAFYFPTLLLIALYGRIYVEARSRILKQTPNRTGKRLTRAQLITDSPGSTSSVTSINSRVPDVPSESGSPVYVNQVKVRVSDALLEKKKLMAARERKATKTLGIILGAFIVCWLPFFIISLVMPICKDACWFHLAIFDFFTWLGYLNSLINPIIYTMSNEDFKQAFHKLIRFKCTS
T1 sequence (O08892 whole entry): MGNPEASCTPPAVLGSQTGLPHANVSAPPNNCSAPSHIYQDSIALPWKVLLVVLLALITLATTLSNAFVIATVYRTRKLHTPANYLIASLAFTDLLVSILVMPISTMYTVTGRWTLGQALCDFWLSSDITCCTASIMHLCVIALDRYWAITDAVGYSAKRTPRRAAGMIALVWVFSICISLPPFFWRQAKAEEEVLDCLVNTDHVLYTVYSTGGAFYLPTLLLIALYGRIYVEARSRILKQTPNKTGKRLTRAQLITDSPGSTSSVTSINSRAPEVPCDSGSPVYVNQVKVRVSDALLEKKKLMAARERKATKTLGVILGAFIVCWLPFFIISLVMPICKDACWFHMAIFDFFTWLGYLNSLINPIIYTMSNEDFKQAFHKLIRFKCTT
T2 sequence (P28564 whole entry): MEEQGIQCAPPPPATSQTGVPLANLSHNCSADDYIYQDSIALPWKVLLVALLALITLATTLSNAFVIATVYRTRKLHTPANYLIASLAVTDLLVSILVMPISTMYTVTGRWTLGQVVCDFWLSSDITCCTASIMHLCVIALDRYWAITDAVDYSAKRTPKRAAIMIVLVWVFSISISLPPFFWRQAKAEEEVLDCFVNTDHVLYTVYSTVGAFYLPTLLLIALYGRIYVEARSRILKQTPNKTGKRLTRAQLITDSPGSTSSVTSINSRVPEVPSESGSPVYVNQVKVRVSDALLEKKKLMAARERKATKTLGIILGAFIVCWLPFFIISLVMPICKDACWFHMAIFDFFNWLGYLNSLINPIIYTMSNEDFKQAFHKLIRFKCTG

Row | Structure (SMILES) | Kd (human h5-HT1B receptor) [nM] | Kd (gp5-HT1B [1]) [nM] | IC50 (gp5-HT1B [1]) [nM] | (GPI) Guinea-Pig Iliac Artery functional assay at gp5-HT1B (gp5-HT1B [2]) | IC50 (rat r5-HT1B receptors) [nM] | effect on heart rate (HR) ([3]; 15 mg/kg/day) | effect on mean systemic arterial pressure (mSAP) ([3]; 15 mg/kg/day) | hypoxia-induced increases in systolic right ventricular pressure (sRVP) ([3]; 15 mg/kg/day for 14 days, hypobaric hypoxia) | hypoxia-induced right ventricular hypertrophy (RVH) ([3]; 15 mg/kg/day for 14 days, hypobaric hypoxia, RV/LV+S) | effect on the increase in contractility to 5HT in intralobar pulmonary arteries from hypoxic mice [4]
1 | CN1CCN(c2cc(N3CCCC3=O)cc3ccoc23)CC1 [Example 45, 1-(7-(4-methylpiperazin-1-yl)benzofuran-5-yl)pyrrolidin-2-one] | 4500 | 200 | 400 | Antagonist |  |  |  |  |  | 
2 | CN1CCN(c2cc(N3CCOC3=O)cc3ccoc23)CC1 [Example 47a, 3-(7-(4-methylpiperazin-1-yl)benzofuran-5-yl)oxazolidin-2-one] | 13500 | 225 | 450 | Antagonist |  |  |  |  |  | 
3 | COC(=O)N1CCN(c2cc(N3CCN(C)CC3)c3occc3c2)S1(=O)=O [Example 49a, methyl 5-(7-(4-methylpiperazin-1-yl)benzofuran-5-yl)-1,1-dioxo-1,2,5-thiadiazolidine-2-carboxylate] | 1800 | 230 | 460 | Antagonist |  |  |  |  |  | 
4 | CN1CCN(c2nc(N3CCN(c4ccccc4)C3=O)cc3ccoc23)CC1 [Example 82, 1-(7-(4-Methylpiperazin-1-yl)furo[2,3-c]pyridin-5-yl)-3-phenylimidazolidin-2-one hydrochloride] |  |  |  |  | 110 | no significant effect | no significant effect | significantly attenuated | significantly attenuated | no effect
